Here are results for five molecules from patent US4358456A, “Antipsychotic piperidinomethyl-indole derivatives” (John Wyeth & Brother Limited, priority 1980, dated 1982).

The nature of data set [1]: Test 5 Increase in Fall Rate From Revolving Drum (ability to induce extrapyramidal effects). The format is in vivo, mice. As to conditions: for TD50 at 1 h: mouse, in vivo, po, mice, one hour after dosing, dose inducing fall rate half of maximum theoretically possible, read-out: ED50, increase in fall rate from revolving drum. The method, then: Test 5 Increase in Fall Rate From Revolving Drum
Groups of 8 mice were trained to walk on a slowly revolving horizontal drum prior to dosing with various concentrations of the test drugs or vehicle. An hour later the mice were replaced on the drum and the number of times each animal fell during the following 3 minutes was noted (mice were replaced immediately after each fall). […] The doses shown are those calculated to induce a fall rate half that of the maximum theoretically possible.

In data set [2] the test system is dopamine receptors. The data set is described as follows: Dopamine antagonism, overall statement on Tests 1, 2 and 3. Particulars: for antagonist activity at dopaminergic reception (in words): results of Table 2, Tests 1 and 3, 50 mg/kg for Examples 6 and 7.
Data set [3] has as its system dopamine receptors. The data set is described as follows: Test 2 Inhibition of Apomorphine Induced Climbing. The class given is in vivo, mice. As to conditions: Table I; for ED50, inhibition of apomorphine induced climbing: mice, compound one hour before 10 mg/kg apomorphine, dose reducing climbing score by 50%.
Data set [4] is described as follows: Test 4 Increase in Halothane Induced Sleep Time (sedative potential). Particulars: for ED50, increase in halothane induced sleep time: mice, one hour before 3% halothane, dose increasing duration of loss of righting reflex by 50%. The format is in vivo, mice. The method, then: Test 4 Increase in Halothane Induced Sleep Time
Groups of 6 mice received the test compounds or the requisite volume of vehicle p.o. one hour before being placed in a perspex container. A gas mixture containing 3% halothane in oxygen was passed through this container for 5 minutes. Next the mice were removed and placed on their backs and the latency to the restoration of the righting reflex noted.
The doses shown are those calculated to increase the duration of halothane induced loss of righting reflex by 50%.

In data set [5] the test system is dopamine receptors. The data set is described as follows: Test 3 Inhibition of p-chloroamphetamine hyperactivity. As to conditions: for ED50, inhibition of pCA induced hyperactivity: Table 2, mice. The class given is in vivo, mice. The protocol:
Test 3 Inhibition of p-chloroamphetamine hyperactivity
C=mean activity of control groups 10-30 minutes post pCA.
T=mean activity of treated groups 10-30 minutes post pCA.
This test is used as an in vivo screen for detection of 5-hydroxytryptamineuptake inhibitors.

In data set [6] the test system is dopamine receptors. Kind of data set: Test 1 Inhibition of Amphetamine Induced Stereotypy. The class given is in vivo, rats. Particulars: for ED50, inhibition of amphetamine induced stereotypy: rats. An excerpt: Test 1 Inhibition of Amphetamine Induced Stereotypy
Setting [7] is: Table I, compound one hour before 5 mg/kg d-amphetamine.

The structures appear in SMILES notation.

Regarding `OC1(c2ccc(Cl)cc2)CCN(Cc2c[nH]c3ccccc23)CC1` [Example 1, 1-(Indol-3-ylmethyl)-4-hydroxy-4-(p-chlorophenyl)piperidine], the “A/B (ED50 Example 1 / ED50 Haloperidol), fall rate from revolving drum” value in data set [1] (Table I, ratio to haloperidol) stood at 56. Also, the TD50 at 1 h in data set [1] (Table I) came out at 50 mg/kg. Further, the “unwanted extrapyramidal effects compared with haloperidol (in words)” value in data set [1] (versus haloperidol) was “exhibits an advantage with regard to unwanted extrapyramidal effects”. The “dopamine antagonist potency compared with haloperidol (in words)” value in the data set with dopamine receptors [2] (Tests 1, 2 and 3, versus haloperidol) is on record as “less potent dopamine antagonist than haloperidol”. Besides, in the data set on dopamine receptors [2], the “antagonist activity at dopaminergic reception (in words)” value (shortened to “antagonist activity”) is recorded as “both show activity”. Besides, in the data set on dopamine receptors [2] (results of Table 2, Example 1 versus Example 2), the “relative potency of Examples 1 and 2 (in words)” value was “the more potent”. For the same molecule, the “ED50, inhibition of apomorphine induced climbing” value in the data set on dopamine receptors [3] stood at 20 mg/kg p.o. In addition, in the data set on dopamine receptors [3] (ratio to haloperidol), the “A/B (ED50 Example 1 / ED50 Haloperidol), apomorphine induced climbing” value was found to be 40. In data set [4] (Table I), the “ED50, increase in halothane induced sleep time” value is 200 mg/kg p.o. In addition, in data set [4] (Table I, ratio to haloperidol), the “A/B (ED50 Example 1 / ED50 Haloperidol), halothane induced sleep time” value was 1000. Also, the selectivity ratio in data set [4] (mouse, in vivo, po, ratio of Test 4 dose to doses in Tests 1-3, read-out: dose prolonging halothane-induced sleep relative to doses required to inhibit dopaminergic responses) lay within 8 to 20. In addition, in data set [4] (versus haloperidol), the “sedative potential compared with haloperidol (in words)” value is “lower than that of haloperidol”. In the data set with dopamine receptors [5] (20 mg/kg pCA ip), the “ED50, inhibition of pCA induced hyperactivity” value is 10 mg/kg p.o. For the same molecule, the “A/B (ED50 Example 1 / ED50 Haloperidol), p-chloro amphetamine hyperactivity” value with dopamine receptors [5] (Table I, ratio to haloperidol) was 33. In addition, the “ED50, inhibition of amphetamine induced stereotypy” value in the data set on dopamine receptors [6] (Table 2, 5 mg/kg d-amphetamine) is recorded as 25 mg/kg p.o; in the data set with dopamine receptors [6] (setting [7]), 25 mg/kg p.o. In addition, the “A/B (ED50 Example 1 / ED50 Haloperidol), amphetamine induced stereotypy” value in the data set on dopamine receptors [6] (Table I, ratio to haloperidol) is listed as 36.
For `OC1(c2ccccc2)CCN(Cc2c[nH]c3ccccc23)CC1` [Example 2, 1-(Indol-3-ylmethyl)-4-hydroxy-4-phenylpiperidine], in the data set with dopamine receptors [2], the “antagonist activity” value is “both show activity”. In addition, the “ED50, inhibition of pCA induced hyperactivity” value in the data set with dopamine receptors [5] (20 mg/kg pCA ip) was 32.6 mg/kg p.o.
In the case of `OC1(c2ccccc2)CCN(CCc2c[nH]c3ccccc23)CC1` [Example 6, 1-(2-(Indol-3-yl)ethyl)-4-hydroxy-4-phenylpiperidine, reference compound], in the data set with dopamine receptors [2], the “antagonist activity” value was “neither of the compounds of Examples 6 and 7 posses significant antagonist activity”. Further, the “ED50, inhibition of pCA induced hyperactivity” value in the data set on dopamine receptors [5] (20 mg/kg pCA ip) is above 50 mg/kg p.o. In addition, in the data set with dopamine receptors [6] (Table 2, 5 mg/kg d-amphetamine), the “ED50, inhibition of amphetamine induced stereotypy” value is listed as above 50 mg/kg p.o.
Consider `OC1(c2ccc(Cl)cc2)CCN(CCc2c[nH]c3ccccc23)CC1` [Example 7, 1-(2-(Indol-3-yl)ethyl)-4-(p-chlorophenyl)-4-hydroxypiperidine, reference compound], for which, in the data set on dopamine receptors [2], the “antagonist activity” value was “neither of the compounds of Examples 6 and 7 posses significant antagonist activity”. Moreover, the “ED50, inhibition of pCA induced hyperactivity” value with dopamine receptors [5] (20 mg/kg pCA ip) was above 50 mg/kg p.o. Also, the “ED50, inhibition of amphetamine induced stereotypy” value with dopamine receptors [6] (Table 2, 5 mg/kg d-amphetamine) was above 50 mg/kg p.o.
Consider `O=C(CCCN1CCC(O)(c2ccc(Cl)cc2)CC1)c1ccc(F)cc1` [Haloperidol, haloperidol, reference compound], for which the TD50 at 1 h in data set [1] (Table I) turned out to be 0.9 mg/kg. For the same molecule, the “ED50, inhibition of apomorphine induced climbing” value in the data set on dopamine receptors [3] was 0.5 mg/kg p.o. Besides, the “ED50, increase in halothane induced sleep time” value in data set [4] (Table I) came out at 0.2 mg/kg p.o. Also, in data set [4] (Test 4 versus Tests 1-3), the “dose prolonging halothane-induced sleep compared with doses inhibiting dopaminergic responses (in words)” value is reported as “prolongs halothane-induced sleep at doses lower than those required to ihibit dopaminergic responses”. For the same molecule, the “ED50, inhibition of p-chloro amphetamine hyperactivity” value with dopamine receptors [5] (Table I, female mice, 20 mg/kg pCA ip, activity 10-30 minutes post pCA) is on record as 0.3 mg/kg p.o. The “ED50, inhibition of amphetamine induced stereotypy” value in the data set with dopamine receptors [6] (setting [7]) is on record as 0.7 mg/kg p.o.
